Measurements published in ChEMBL document CHEMBL3507680, “University of Dundee, Gates Library screen for HepG2 cell viability”.

Test: Human HepG2 cell viability assay in 384 well format
Format: toxicity, cell-based
Parameters: dose 125 nL, time 70.5 hour; cytotoxicity at 70.5 h: concentration not given beside the values
Conditions: HepG2 cells, read-out: Inhibition

| SMILES | cytotoxicity at 70.5 h [%] |
| --- | --- |
| Cc1noc(C2CCN(Cn3cc(Br)cn3)CC2)n1 | -8.17 |
| CN(C)S(=O)(=O)c1ccc(=O)n(CC2CCCCO2)c1 (stereo not given) | -12.9 |
| CN(C)S(=O)(=O)c1ccc(=O)n(CC2CCCO2)c1 (stereo not given) | -1.56 |
| Cc1cc(C[S+]([O-])Cc2ccccc2C)no1 (stereo not given) | -8.16 |
| Cc1cnn(C2CN(CCCOc3ccc(C#N)cc3)C2)c1 | -2.39 |
| NC(=O)C1CCN(c2ncccc2C(=O)N2CCc3ccccc32)C1 (stereo not given) | -5.78 |
| Cc1cc(C(=O)NC(C)CC(=O)c2ccco2)[nH]n1 (stereo not given) | 15.2 |
| CCOc1ccc(Cl)cc1CCNC(=O)c1ccc(=O)n(C)c1 | -10.2 |
| CCS(=O)(=O)NCC(=O)NC1(C)CCc2ccccc2C1 (stereo not given) | -5.54 |
| CCN1CC(COC(=O)c2cc(C)nn2CC)CC1=O (stereo not given) | -7.36 |
| Cc1nsc(N2CCCN(CC(=O)N(C)C3CC3)CC2)n1 | -4.31 |
| CC(CC(=O)c1ccco1)NC(=O)c1ccccn1 (stereo not given) | -10.8 |
| CCc1nsc(N2CCCN(CC(=O)N(C)C3CC3)CC2)n1 | -6.24 |
| Cc1cnn(C2CN(CC(O)COc3ccc(C#N)cc3)C2)c1 (stereo not given) | -3.3 |
| COCCN(C)CC1CCCN1S(=O)(=O)Cc1ccccc1F (stereo not given) | 13.2 |
| Cc1ccc(C(=O)NCC(O)CN2CCCC2=O)cc1Cl (stereo not given) | 6.85 |
| Cc1noc(C)c1CC(=O)NCCc1cccs1 | 7.71 |
| CCOC(=O)C(C)NC(=O)CCc1ccc(F)cc1 (stereo not given) | 1.35 |
| NC(=O)Nc1cccc(CNC(=O)CCCc2ccccc2)c1 | 18 |
| O=C(CCNC(=O)NC1CC1)NCc1ccccc1 | -6.54 |
| CCc1ncc(C(=O)N2CCN(c3nc(C)cc(OC)n3)CC2)s1 | 15.8 |
| CCc1[nH]ncc1C(=O)N1CCN(c2nc(C)cc(OC)n2)CC1 | -4.16 |

| SMILES | cytotoxicity at 70.5 h [%] |
| --- | --- |
| CC(C)(C)C(=O)NCCC(=O)NS(=O)(=O)c1cccnc1 | 9.3 |
| CCn1nc2c(cc1=O)CN(CCOc1ccc(C#N)cc1)CC2 | 17.6 |
| OCCN(Cc1cccnc1)c1cnc2ccccc2n1 | -4.32 |
| Cc1cccc(C)c1CN1C(=O)CC2(CCSC2)C1=O (stereo not given) | 0.0631 |
| OCCN(Cc1cccnc1)c1ccc(Br)cn1 | -2.3 |
| CN(CC(N)=O)C(=O)CCCn1ccc2cc(Cl)ccc21 | 10.8 |
| CN1CCN(C2CCN(Cc3ccc(Cl)cc3)CC2)C1=O | -2.16 |
| COCC(C)NC(=O)CCSc1ccc(F)cc1 (stereo not given) | 13.7 |
| CCN(CC)C(=O)CNC(=O)c1cnc(-c2ccccc2)nc1 | -2.98 |
| Cc1cccc(CN2CCC(NCC3CNc4cc(C)nn4C3)CC2)c1 (stereo not given) | -6.82 |
| Cc1cc2n(n1)CC(CNC1CCN(C(=O)c3ccco3)CC1)CN2 (stereo not given) | -6.69 |
| Cc1cc2n(n1)CC(CNC1CCN(C3CC3)CC1)CN2 (stereo not given) | -4.14 |
| Cc1cc(S(=O)(=O)Nc2cccc(I)c2)sc1C(=O)O | 13.9 |
| O=C(NCC1CC1)c1cnc(-c2ccccc2)nc1 | -5.81 |
| CC(=O)c1cccc(NS(=O)(=O)c2cc(C)c(C(=O)O)s2)c1 | -4.79 |
| Cc1noc(C)c1CCC(=O)NC(C)c1nnc2n1CCCCC2 (stereo not given) | -4.24 |
| Cc1nc(CN2CCC(CNC(=O)Nc3ccccc3)CC2)oc1C | -6.72 |
| CCOc1ccc(NS(=O)(=O)c2cc(C)c(C(=O)O)s2)cc1F | -8.14 |
| CCOc1c(Cl)cccc1NS(=O)(=O)c1cc(C)c(C(=O)O)s1 | -4.74 |
| Cn1cc(N2CCC(NC(=O)c3ccccc3F)C2=O)cn1 (stereo not given) | -1.23 |
| Cc1cccc(C(=O)NC2CCN(c3cnn(C)c3)C2=O)c1C (stereo not given) | -2.07 |
| CCC(CC)c1cc(CNC(=O)N2CCN(CC)CC2)on1 | -2.19 |

| SMILES | cytotoxicity at 70.5 h [%] |
| --- | --- |
| CCOC(=O)NC(CNC(=O)c1cn(C)cn1)CC(C)C (stereo not given) | -1.97 |
| CCC(CC)c1cc(CNC(=O)N2CCC(n3cncn3)CC2)on1 | -1.7 |
| CC(NC(=O)CCCc1nc(C(C)(C)C)no1)c1nnc2n1CCC2 (stereo not given) | -2.92 |
| CCN1CCN(c2ccc(F)cc2C(C)NCc2ccnn2C)CC1 (stereo not given) | -1.9 |
| O=C(CNc1cc2c(cc1Cl)OCCCO2)NCc1ccc(F)cc1 | -4.01 |
| CC(NC(=O)COc1ccccc1C(=O)O)c1ccc(F)cc1 (stereo not given) | -9.45 |
| CC(C)OCCC(=O)Nc1cccc(N2CCN(CC3CC3)CC2)c1 | -4.83 |
| N#Cc1ccnc(N2CCN(CC(O)c3ccc(F)cc3F)CC2)c1 (stereo not given) | -3.3 |
| N#Cc1ccnc(N2CCN(CC(O)c3cc(F)ccc3F)CC2)c1 (stereo not given) | -5.77 |
| N#Cc1ccnc(N2CCN(CC(O)c3ccccc3)CC2)c1 (stereo not given) | -8.1 |
| Cc1ccc(CNC(=O)C2CCCCN2C(=O)OC(C)(C)C)cn1 (stereo not given) | -3.38 |
| O=S(=O)(CCN1CCOC(Cn2cccn2)C1)c1ccccc1 (stereo not given) | -7.12 |
| Cc1cc(NC(=O)[C@H]2CCCCN2C(=O)OC(C)(C)C)no1 | -2.01 |
| CSCC(C)(O)CNC(=O)c1cccc(Cl)c1Cl (stereo not given) | -5.93 |
| N#Cc1ccnc(N2CCN(CC(O)c3ccccc3Cl)CC2)c1 (stereo not given) | -0.0236 |
| O=C(CC1CCCO1)Nc1cccc(N2CCN(CC3CC3)CC2)c1 (stereo not given) | 0.099 |
| CCN1CCN(C(=O)C2CCCc3[nH]ncc32)CC1 (stereo not given) | 1.54 |
| Cc1cn(CC(=O)NC2CCC(C(=O)O)CC2)c2ccccc12 (stereo not given) | -6.01 |
| Cc1cc(C)c2c(c1)C(NCc1nnc3n1CCC3)CCCO2 (stereo not given) | -5.63 |
| Cc1n[nH]cc1CNC(=O)[C@H]1CCCCN1C(=O)OC(C)(C)C | 8.82 |
| OC(CN(Cc1ccccc1)Cc1cccnc1)c1cccs1 (stereo not given) | 10 |
| Cc1cccc2c1OCCCC2NCc1nnc2n1CCCCC2 (stereo not given) | -7.8 |

| SMILES | cytotoxicity at 70.5 h [%] |
| --- | --- |
| CCN(CC)C(=O)N1CCN(C(=O)C2CCCc3[nH]ncc32)CC1 (stereo not given) | -3.25 |
| O=C(C1CCCc2[nH]ncc21)N1CCCC2(C1)OCCO2 (stereo not given) | -9.5 |
| CN1CCN(c2cc(CNCc3cccc4c3OCO4)ccn2)CC1 | -8.22 |
| Cc1cnn(CC2CN(CCCS(=O)(=O)N(C)C)CCO2)c1 (stereo not given) | -10.7 |
| CC(C(=O)NCc1ccnc(OCC(F)(F)F)c1)n1cncn1 (stereo not given) | -2.68 |
| Cc1[nH]ncc1CCCNC(=O)Nc1ccc(F)cc1 | 3.38 |
| O=C(c1cccnc1-n1cncn1)N1CCN(c2ccccc2)CC1 | -8.14 |
| COc1ccc(Oc2ccc(CNC(=O)C(C)n3cncn3)cn2)cc1 (stereo not given) | -0.159 |
| CC(C)(C)c1nnc(CN2CCN(C(=O)N3CCCCC3)CC2)o1 | -3.76 |
| CC(C)CCN1CCN(C(=O)c2cccnc2-n2cncn2)CC1 | -3.48 |
| Cc1ccc(C(=O)NCCNCC2CNc3ccnn3C2)cc1F (stereo not given) | 1.33 |
| CCCN1CCN(C(=O)c2cccnc2-n2cncn2)CC1 | -2.43 |
| O=C(c1cccnc1-n1cncn1)N1CCN(C2CCCC2)CC1 | -5.59 |
| Cc1[nH]ncc1CCCNC(=O)Nc1ccc2c(c1)OC1(CCCC1)O2 | -2.92 |
| CCN(C(=O)CSc1ccc(C(F)(F)F)cn1)C1CC1 | 7.64 |
| Cc1ccc(C(=O)NCCNCC2CNc3ccnn3C2)cc1 (stereo not given) | -0.325 |
| CC(C)(C)c1nnc(CN2CCN(C(=O)CC3CCCCC3)CC2)o1 | -2.8 |
| Cc1cnn(CC2CCCN2CC(=O)N(C)Cc2cnn(C)c2)c1 (stereo not given) | -1.69 |
| Cc1[nH]ncc1CCCNC(=O)Nc1ccccc1 | 14.5 |
